The values below are quoted from earlier work in patent publication US20110159054A1, “NANOPARTICULATE BICALUTAMIDE FORMULATIONS” (Elan Pharma International Ltd., priority 2004, published 2011).

The conditions of this series: 37° C., practically insoluble.

In the case of `CC(O)(CS(=O)(=O)c1ccc(F)cc1)C(=O)Nc1ccc(C#N)c(C(F)(F)F)c1` (racemic) [Bicalutamide], the solubility in water is 5 mg per 1000 mL.
